The source of these data is ChEMBL document CHEMBL1127179, “Synthesis and 5-HT3 receptor agonist activity of arylureas derived from histamine” (Bioorg Med Chem Lett, 1993).

The target in assay [1] is Serotonin 3 (5-HT3) receptor. Put plainly: Binding affinity for the 5-hydroxytryptamine 3 receptor was evaluated in vitro by examining its ability to displace [3H]-BRL 43694. Type of assay: protein-complex assay.
Assay [2] has as its target Serotonin 3 (5-HT3) receptor (Homo sapiens) (UniProt P46098+A5X5Y0+O95264+Q70Z44+Q8WXA8). Description: Tested for 5-hydroxytryptamine 3 receptor antagonist activity by inhibiting the 5-HT evoked Bezold-Jarisch reflex. Type of assay: functional.

Take `CCOc1ccccc1NC(=O)NCCc1c[nH]cn1`: the “Log Ki” value in assay [1] is -7.35. Further, the -Log ED50 in assay [2] stood at 7.2.

With `COc1ccc(F)cc1NC(=O)NCCc1c[nH]cn1`, the “Log Ki” value in assay [1] is listed as -7.69. This compound had a -Log ED50 in assay [2] of 7.4.

For the compound `Cn1nc(C(=O)NCCc2c[nH]cn2)c2ccccc21`, the “Log Ki” value in assay [1] is recorded as -7.84. For the same compound, the -Log ED50 in assay [2] worked out at 6.9.

In the case of `NCCc1c[nH]c2ccc(O)cc12`, the -Log ED50 in assay [2] came out at 7.4.

Take `COc1cc(F)ccc1NC(=O)NCCc1c[nH]cn1`: the “Log Ki” value in assay [1] is reported as -7.39. In assay [2], the -Log ED50 turned out to be 7.

With `COc1ccc(Cl)cc1NC(=O)NCCc1c[nH]cn1`, the “Log Ki” value in assay [1] was -8.86. The -Log ED50 in assay [2] was 6.8.

For `COc1ccccc1NC(=O)NCCc1c[nH]cn1`, the “Log Ki” value in assay [1] was -7.55. In assay [2], this compound showed a -Log ED50 of 7.
